According to patent US4269831A, “Topical dermatological method of use of an androstenopyrazole” (priority 1979, dated 1981):

Experiments:
[1] = system: hair on the back of mature male Syrian golden hamsters; assay: Reduction of hair regrowth on clipped back of hamsters; format: in vivo; conditions: 200 microliters on 9 cm2, 30 daily applications, vehicle 323±49 mg
Description: The hair on the back of mature male Syrian golden hamsters having a mean initial body weight of 107 g. (7 hamsters per group) was removed with electric clippers. The vehicle (200 microliters of ethanol) or the test solution (0.02% or 0.1% of the compound of Formula I in ethanol) was pipetted slowly to cover the entire clipped area (9 cm.^2). After 30 daily applications, the hair was clipped from the same area and the hair clippings were collected and weighed in order to measure hair regrowth. The hair weights averaged 119±15 and 109±17 mg. for hamsters treated with 0.02% and 0.1% of the compound of Formula I, respectively, compared to 323±49 mg. for vehicle-treated hamsters.

[2] = system: male hamster flank organ hair; assay: Rate of flank organ hair growth by 35S-cystine pulse labelling (Table V); format: in vivo, Syrian golden hamsters; conditions: right flank organ, 5 microliters 0.1% solution daily for 14 days; mean ± SE, n=8
Description: In a second test all hair was clipped from the flank organs of 8 male Syrian golden hamsters having a mean body weight of 116 g. on the first day of the study. The hamsters were medicated daily with 5 microliters of ethanol on the left flank organ and 5 microliters of a 0.1% solution of the compound of Formula I in ethanol on the right flank organ for 14 consecutive days. On days 4, 8 and 12 each hamster was injected subcutaneously with 30 microcuries of ^35 S-cystine (0.72 nmole) dissolved in ethanol-saline (0.1 ml., 1:9, v/v). On day 15 several hairs were plucked from each flank organ. The hairs were exposed to X-ray film for 4 weeks. The distances between the radioactive sites and the hair resulting from the three pulses of ^35 S-cystine were measured and the daily rate of hair-growth was determined. As shown by Table V the rate of hair growth was reduced after 12 days of treatment.

[3] = system: androgen-stimulated flank organ; assay: Related experiment: androgen-stimulated flank organ in mature female and castrated immature male hamsters; format: in vivo; conditions: 5 to 25 micrograms per flank organ
Description: As shown by Table I the diameters and the wet weights of the flank organs were reduced at a dose of 5 micrograms per flank organ per day.

[4] = system: supracaudal glands of mature male guinea pigs; assay: Topical study on supracaudal glands of guinea pigs; format: in vivo; conditions: 21 days
Description: The supracaudal glands of mature male guinea pigs having a mean initial body weight of 431 g. (8 guinea pigs per group) were medicated topically with a solution of the compound of Formula I (400 micrograms) in ethanol (10 microliters). Guinea pigs treated with ethanol served as controls. After 21 days of treatment the guinea pigs were killed and the areas of the supracaudal glands (pi×long radius×short radius) were measured in situ with calipers. The weights of seminal vesicles, adrenals and thymus glands were also measured.

[5] = system: adrenalectomized Sprague-Dawley rats; assay: Systemic glucocorticoid activity in the adrenalectomized rat, oral; format: in vivo; parameters: Liver glycogen: unit not given here; conditions: five consecutive days; for Liver glycogen: control 1.82±0.03; for Thymus weights: control 638±50
Description: A solution of the compound of Formula I in ethanolcottonseed oil (1:9, v/v) was administered orally to adrenalectomized Sprague-Dawley rats having a mean initial body weight of 188 g. (10 rats per group) for five consecutive days. Adrenalectomized rats receiving vehicle alone served as controls. Seven hours after the final medication the rats were killed and the thymus glands were excised and weighed. A portion of the liver was excised, frozen and digested in hot aqueous potassium hydroxide (30%). Liver glycogen was then determined. In this test the compound of Formula I caused thymolysis and liver glycogen deposition. The thymus weights at doses of 10 and 30 mg./kg. were 359±31 and 167±20 mg., respectively,in the medicated rats compared with 638±50 mg. in the control rats.

[6] = biological target: T1, hamster flank organ cytosol receptor (Mesocricetus auratus, UniProt A0A1U7QL32); assay: Binding competition with 3H-dihydrotestosterone in hamster flank organ cytosol in vitro (Table VI); parameters: species or system Syrian golden hamsters; conditions: 3H-DHT 2 nM, two hours, no antagonist 13.96
T1 construct: The homogenate was centrifuged (120,000×g for 45 min.) and the cytosol was frozen and stored at -70° C; from tissue; host or cells: flank organ cytosol of castrated male Syrian golden hamsters
T1 sequence (A0A1U7QL32 1-900): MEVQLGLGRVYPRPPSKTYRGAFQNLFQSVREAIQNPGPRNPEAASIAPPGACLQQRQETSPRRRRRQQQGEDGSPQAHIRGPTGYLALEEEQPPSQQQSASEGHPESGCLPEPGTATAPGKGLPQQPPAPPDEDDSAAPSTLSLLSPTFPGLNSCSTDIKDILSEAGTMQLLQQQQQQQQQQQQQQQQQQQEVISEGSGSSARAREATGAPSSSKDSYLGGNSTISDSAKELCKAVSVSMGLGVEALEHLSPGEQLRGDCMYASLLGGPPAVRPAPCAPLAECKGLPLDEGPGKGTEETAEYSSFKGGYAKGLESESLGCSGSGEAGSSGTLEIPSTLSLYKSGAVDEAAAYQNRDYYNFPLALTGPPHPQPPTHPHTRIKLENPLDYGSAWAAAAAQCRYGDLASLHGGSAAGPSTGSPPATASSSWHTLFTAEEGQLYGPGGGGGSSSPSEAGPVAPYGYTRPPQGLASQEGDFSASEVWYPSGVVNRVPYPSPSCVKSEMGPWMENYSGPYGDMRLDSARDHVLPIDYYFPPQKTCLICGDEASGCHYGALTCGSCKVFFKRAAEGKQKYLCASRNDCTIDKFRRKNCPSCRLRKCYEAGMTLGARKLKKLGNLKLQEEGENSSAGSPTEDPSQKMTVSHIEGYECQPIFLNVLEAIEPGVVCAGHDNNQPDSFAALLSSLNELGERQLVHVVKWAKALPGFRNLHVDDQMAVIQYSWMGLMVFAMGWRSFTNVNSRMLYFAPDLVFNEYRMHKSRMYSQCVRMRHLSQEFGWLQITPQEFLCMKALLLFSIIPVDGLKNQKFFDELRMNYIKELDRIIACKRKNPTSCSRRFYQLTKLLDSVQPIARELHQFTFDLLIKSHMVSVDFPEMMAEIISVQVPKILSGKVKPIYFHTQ
Description: The flank organs of twelve mature male Syrian golden hamsters each weighing from 120 to 140 g. and having been castrated 16-18 hours earlier were excised, dissected under the microscope to remove the dermis and the muscle layers and homogenized in buffer (1.5 volumes of 50 mM Tris, 0.5 mM mercaptoethanol and 0.1 mM ethylenediamine tetracetate, pH 7.4). The homogenate was centrifuged (120,000×g for 45 min.) and the cytosol was frozen and stored at -70° C. Six of the cytosol samples were thawed at room temperature, pooled and used for evaluation of in vitro binding.

## CC#C[C@]1(O)CC[C@H]2[C@@H]3C[C@H](C)C4=Cc5[nH]ncc5C[C@]4(C)[C@H]3CC[C@@]21C [Compound of Formula I, 17β-Hydroxy-6α-methyl-17α-propynyl-4-androsteno[3,2-c]-pyrazole]
[1]; 0.02% in ethanol
  Hair weights (hair regrowth on clipped back area): 119 ± 15 mg
[1]; 0.1% in ethanol
  Hair weights (hair regrowth on clipped back area): 109 ± 17 mg
[2]
  Rate of Hair Growth, First Interval (Day 4-8): .504 ± .014 mm/day
  Rate of Hair Growth, Second Interval (Day 9-12): .566 ± .014 mm/day
[3]
  Inhibition of androgen-stimulated flank organ parameters: effective inhibitor of androgen-stimulated flank organ parameters
  Systemic effects: without any systemic effects
[4]; 400 micrograms in 10 microliters ethanol topical, control 104±7, p<0.01
  Average area of the supracaudal glands: 72±6 sq. mm.
[4]; 400 micrograms topical, versus control group
  Changes in weights of seminal vesicles, adrenals or thymus glands: No changes
[5]; 10 mg./kg. oral
  Liver glycogen: 5.7±1.1
  Thymus weights: 359 ± 31 mg
[5]; 30 mg./kg. oral
  Liver glycogen: 10.9±1.2
  Thymus weights: 167 ± 20 mg
[6]; unlabelled antagonist 20 nM, molar ratio 10
  % Bound (Mean ± SE) of 3H-dihydrotestosterone: 9.94 ± .45%
[6]; unlabelled antagonist 200 nM, molar ratio 100
  % Bound (Mean ± SE) of 3H-dihydrotestosterone: 8.55 ± .56%
[6]; unlabelled antagonist 2000 nM, molar ratio 1000
  % Bound (Mean ± SE) of 3H-dihydrotestosterone: 6.30 ± .003%
